Data set [1] can be described thus: MTT cell viability assay, compounds at 5, 1 and 0.2 μM, 48 hours. Format: cell-based. As to conditions: human, A549 tumor cells. A digest of the protocol:
(§1)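 A549 cells were seeded at 2500/well in DMEM + 10% FBS, grown overnight, then exposed to compound for 48 h. Viability was read by MTT (5 mg/ml, 4 h), with formazan dissolved in DMSO and absorbance measured at 560/570 nm to give survival rate.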

For another data set, the system named is Tumor cells (A549). The description is as above. Format: cell-based. The method in brief: as §1

Take `COc1cc(Oc2ccc(-c3nnc(Nc4cccc(C(F)(F)F)c4)[nH]3)cc2)ccn1` [Compound 73]: in data set [1], the viability at 48 h, 0.2 µM was > 70%; the viability at 48 h, 1 µM is > 70%; the viability at 48 h, 5 µM was < 50%.

Turning to `Cc1ccc(-c2nnc(Nc3cccc(C(F)(F)F)c3)[nH]2)cc1Oc1cccnc1` [Compound 177], in data set [1], the viability at 48 h, 0.2 µM is > 70%; the viability at 48 h, 1 µM is > 70%; the viability at 48 h, 5 µM was > 70%.

With `FC(F)(F)c1cccc(Nc2nnc(-c3cccc(Oc4ccncc4)c3)[nH]2)c1` [Compound 17], in data set [1], the viability at 48 h, 0.2 µM was > 70%; the viability at 48 h, 1 µM lay in the range of 50 to 70%; the viability at 48 h, 5 µM was 50 to 70%.

`FC(F)(F)c1cccc(Nc2nnc(-c3ccc(Oc4ccnc5cc(OCc6ccccc6)ccc45)cc3)[nH]2)c1` [Compound 187]: in data set [1], the viability at 48 h, 0.2 µM was > 70%; the viability at 48 h, 1 µM is > 70%; the viability at 48 h, 5 µM was > 70%.

For `CSc1nc(N)cc(Oc2ccc(-c3nnc(Nc4cc(C(C)(C)C)on4)[nH]3)cc2)n1` [Compound 129], in data set [1], the viability at 48 h, 0.2 µM was > 70%; the viability at 48 h, 1 µM was > 70%; the viability at 48 h, 5 µM is > 70%.

On to `CSc1nc(N)cc(Oc2ccc(Nc3nnc(-c4cccc(C(F)(F)F)c4)[nH]3)cc2)n1` [Compound 176], for which, in data set [1], the viability at 48 h, 0.2 µM is > 70%; the viability at 48 h, 1 µM is > 70%; the viability at 48 h, 5 µM is > 70%.

Take `CSc1nc(N)cc(Oc2ccc(-c3nnc(Nc4cc(C)ccc4F)[nH]3)cc2)n1` [Compound 121]: in data set [1], the viability at 48 h, 0.2 µM was > 70%; the viability at 48 h, 1 µM was 50 to 70%; the viability at 48 h, 5 µM is < 50%.

Regarding `CSc1nc(N)cc(Oc2ccc(-c3nnc(Nc4cc(C)cc(C)c4)[nH]3)cc2)n1` [Compound 123], in data set [1], the viability at 48 h, 0.2 µM is < 50%; the viability at 48 h, 1 µM is < 50%; the viability at 48 h, 5 µM is < 50%.

For the molecule `CSc1nc(N)cc(Oc2cccc(-c3nnc(Nc4cccc(C(F)(F)F)c4)o3)c2)n1` [Compound 36], in data set [1], the viability at 48 h, 0.2 µM is > 70%; the viability at 48 h, 1 µM was > 70%; the viability at 48 h, 5 µM was > 70%.

With `FC(F)(F)c1cccc(Nc2nnc(-c3cccc(Oc4ccncc4C(F)(F)F)c3)o2)c1` [Compound 40], in data set [1], the viability at 48 h, 0.2 µM was > 70%; the viability at 48 h, 1 µM was > 70%; the viability at 48 h, 5 µM is > 70%.

Consider `CSc1nc(N)cc(Oc2ccc(-c3nnc(Nc4ccc(C#N)cc4)[nH]3)cc2)n1` [Compound 127], for which, in data set [1], the viability at 48 h, 0.2 µM is > 70%; the viability at 48 h, 1 µM is > 70%; the viability at 48 h, 5 µM fell in the range of 50 to 70%.

With `COc1ccc2nccc(Oc3ccc(-c4nnc(Nc5cccc(C(F)(F)F)c5)[nH]4)cc3)c2c1` [Compound 185], in data set [1], the viability at 48 h, 0.2 µM was > 70%; the viability at 48 h, 1 µM was > 70%; the viability at 48 h, 5 µM was > 70%.

In the case of `CSc1nc(N)cc(Oc2ccc(-c3nnc(Nc4ccc(Cl)c(C(F)(F)F)c4)[nH]3)cc2)n1` [Compound 66], in data set [1], the viability at 48 h, 0.2 µM is > 70%; the viability at 48 h, 1 µM is > 70%; the viability at 48 h, 5 µM is < 50%.

On to `FC(F)(F)Oc1ccc2c(Oc3cccc(-c4nnc(Nc5cccc(C(F)(F)F)c5)[nH]4)c3)ccnc2c1` [Compound 173], for which, in data set [1], the viability at 48 h, 0.2 µM was > 70%; the viability at 48 h, 1 µM is > 70%; the viability at 48 h, 5 µM is > 70%.

Take `Nc1cc(Oc2ccc(-c3nnc(Nc4cccc(C(F)(F)F)c4)[nH]3)cc2)nc(SCC(=O)O)n1` [Compound 116]: in data set [1], the viability at 48 h, 0.2 µM is > 70%; the viability at 48 h, 1 µM is > 70%; the viability at 48 h, 5 µM is > 70%.

On to `FC(F)(F)c1cccc(Nc2nnc(-c3cccc(Oc4ccnc5ccccc45)c3)o2)c1` [Compound 42], for which, in data set [1], the viability at 48 h, 0.2 µM was > 70%; the viability at 48 h, 1 µM is > 70%; the viability at 48 h, 5 µM is > 70%.

Consider `Nc1cc(Oc2ccc(-c3nnc(Nc4cccc(C(F)(F)F)c4)s3)cc2)nc(N)n1` [Compound 43], for which, in data set [1], the viability at 48 h, 0.2 µM is > 70%; the viability at 48 h, 1 µM was > 70%; the viability at 48 h, 5 µM is > 70%.

In the case of `Fc1ccc2c(Oc3ccc(-c4nnc(Nc5cccc(C(F)(F)F)c5)[nH]4)cc3)ccnc2c1` [Compound 186], in data set [1], the viability at 48 h, 0.2 µM was > 70%; the viability at 48 h, 1 µM was > 70%; the viability at 48 h, 5 µM was > 70%.

With `CSc1nc(N)cc(Oc2ccc(-c3nnc(Nc4cccc5c4CCCC5)[nH]3)cc2)n1` [Compound 135], in data set [1], the viability at 48 h, 0.2 µM is < 50%; the viability at 48 h, 1 µM is < 50%; the viability at 48 h, 5 µM is < 50%.

Take `C[S+]([O-])c1nc(N)cc(Oc2ccc(-c3nnc(Nc4cccc(C(F)(F)F)c4)[nH]3)cc2)n1` (stereo not drawn) [Compound 63]: in data set [1], the viability at 48 h, 0.2 µM is > 70%; the viability at 48 h, 1 µM was > 70%; the viability at 48 h, 5 µM was in the range of 50 to 70%.

Consider `Fc1ccc2c(Oc3cccc(-c4nnc(Nc5cccc(C(F)(F)F)c5)[nH]4)c3)ccnc2c1` [Compound 192], for which, in data set [1], the viability at 48 h, 0.2 µM is > 70%; the viability at 48 h, 1 µM is > 70%; the viability at 48 h, 5 µM was > 70%.

With `Cc1cc(Oc2cccc(-c3nnc(Nc4cccc(C(F)(F)F)c4)[nH]3)c2)nc(N)n1` [Compound 95], the entries for the “% Viability A549” value in the data set on Tumor cells (A549) (0.2 μM), with Tumor cells (A549) (1 μM) and with Tumor cells (A549) (5 μM) were “+++ (+++: >70%)”, “+++ (+++: >70%)” and “++ (++: 50-70%)”, respectively.

With `Nc1cc(Oc2cccc(-c3nnc(Nc4cccc(C(F)(F)F)c4)o3)c2)nc(N)n1` [Compound 35], in data set [1], the viability at 48 h, 0.2 µM is > 70%; the viability at 48 h, 1 µM is > 70%; the viability at 48 h, 5 µM was > 70%.

`Nc1cc(Oc2ccc(-c3nnc(Nc4cccc(C(F)(F)F)c4)[nH]3)cc2)ncn1` [Compound 2]: in data set [1], the viability at 48 h, 0.2 µM is > 70%; the viability at 48 h, 1 µM is > 70%; the viability at 48 h, 5 µM was > 70%.

For the molecule `COc1nc(Oc2cccc(-c3nnc(Nc4cccc(C(F)(F)F)c4)[nH]3)c2)c2cc[nH]c2n1` [Compound 92], in data set [1], the viability at 48 h, 0.2 µM was > 70%; the viability at 48 h, 1 µM is > 70%; the viability at 48 h, 5 µM was > 70%.

For `CSc1nc(N)cc(Oc2ccc(-c3nnc(Nc4cc(C)ccc4C)[nH]3)cc2)n1` [Compound 67], in data set [1], the viability at 48 h, 0.2 µM was in the range of 50 to 70%; the viability at 48 h, 1 µM was < 50%; the viability at 48 h, 5 µM was < 50%.

Take `CSc1nc(N)cc(Oc2ccc(-c3nnc(Nc4cccc(C(F)(F)F)c4)s3)cc2)n1` [Compound 44]: in data set [1], the viability at 48 h, 0.2 µM was > 70%; the viability at 48 h, 1 µM is > 70%; the viability at 48 h, 5 µM was > 70%.

For `CCc1cccc(Nc2nnc(-c3ccc(Oc4cc(N)nc(SC)n4)cc3)[nH]2)c1` [Compound 122], in data set [1], the viability at 48 h, 0.2 µM was > 70%; the viability at 48 h, 1 µM was > 70%; the viability at 48 h, 5 µM was < 50%.

On to `Nc1cc(Oc2cccc(-c3nnc(Nc4cccc(C(F)(F)F)c4)[nH]3)c2)ncn1` [Compound 16], for which, in data set [1], the viability at 48 h, 0.2 µM is > 70%; the viability at 48 h, 1 µM is > 70%; the viability at 48 h, 5 µM was > 70%.

For the molecule `FC(F)(F)c1cccc(Nc2nnc(-c3ccc(Oc4ccnc5[nH]ccc45)cc3)[nH]2)c1` [Compound 68], in data set [1], the viability at 48 h, 0.2 µM is > 70%; the viability at 48 h, 1 µM was in the range of 50 to 70%; the viability at 48 h, 5 µM was < 50%.

In the case of `COc1ccc2c(Oc3cccc(-c4nnc(Nc5cccc(C(F)(F)F)c5)o4)c3)ccnc2c1` [Compound 41], in data set [1], the viability at 48 h, 0.2 µM is > 70%; the viability at 48 h, 1 µM is > 70%; the viability at 48 h, 5 µM was > 70%.
